Measured values taken from US20240158446A1, “CYCLIC COMPOUND HAVING SELECTIVE INHIBITORY ACTION ON KRAS OVER HRAS AND NRAS” (CHUGAI SEIYAKU KABUSHIKI KAISHA, priority 2021, published 2024).
pIC50, pKd: −log10 of the molar value.

Tests used:
[1] = target: GDP-bound KRAS wild-type protein (Homo sapiens, UniProt P01116); assay: Binding to KRAS by surface plasmon resonance (SPR), Single Cycle Kinetics; settings: SPR Single Cycle Kinetics, GDP-bound KRAS wild-type protein, 1:1 binding model; read-out: KRAS KD
[2] = target: GDP-bound NRAS wild-type protein (Homo sapiens, UniProt P01111); assay: Binding to NRAS by surface plasmon resonance (SPR), Single Cycle Kinetics; settings: SPR KD ratio NRAS/KRAS, class symbols
[3] = target: GDP-bound HRAS wild-type protein (Homo sapiens, UniProt P01112); assay: Binding to HRAS by surface plasmon resonance (SPR), Single Cycle Kinetics; settings: SPR KD ratio HRAS/KRAS, class symbols
[4] = system: human lung cancer strain NCI-H441;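 note: cell proliferation inhibition after four days measured by CellTiter-Glo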

GDP-bound HRAS wild-type protein, sequence (P01112 whole entry): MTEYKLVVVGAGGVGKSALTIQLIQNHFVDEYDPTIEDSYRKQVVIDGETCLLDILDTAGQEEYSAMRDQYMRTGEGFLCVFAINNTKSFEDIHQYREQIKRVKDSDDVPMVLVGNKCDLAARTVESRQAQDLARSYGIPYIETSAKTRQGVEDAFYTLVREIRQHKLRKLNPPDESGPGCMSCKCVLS
GDP-bound KRAS wild-type protein, sequence (P01116 whole entry): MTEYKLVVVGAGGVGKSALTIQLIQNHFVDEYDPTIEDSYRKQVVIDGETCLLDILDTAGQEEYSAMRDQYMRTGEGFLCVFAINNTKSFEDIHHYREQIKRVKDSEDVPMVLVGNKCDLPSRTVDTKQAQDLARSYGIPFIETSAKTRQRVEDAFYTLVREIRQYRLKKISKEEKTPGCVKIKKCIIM
GDP-bound NRAS wild-type protein, sequence (P01111 whole entry): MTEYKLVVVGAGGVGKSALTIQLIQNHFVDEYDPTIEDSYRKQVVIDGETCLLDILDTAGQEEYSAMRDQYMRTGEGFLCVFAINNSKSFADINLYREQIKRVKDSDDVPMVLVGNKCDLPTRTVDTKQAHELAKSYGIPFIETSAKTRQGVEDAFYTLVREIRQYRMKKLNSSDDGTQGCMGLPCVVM

SMILES	pKd [1]	NRAS/KRAS (ratio of KD value with respect to GDP-bound NRAS wild-type protein to KD value with respect to KRAS) [2]	HRAS/KRAS (ratio of KD value with respect to GDP-bound HRAS wild-type protein to KD value with respect to KRAS) [3]	pIC50 [4]
CCC[C@H]1C(=O)N[C@@H]([C@@H](C)CC)C(=O)N(C2CC2)CC(=O)N(C)[C@H]2C/C=C\CCN(C2=O)[C@@H](Cc2ccc(C(F)(F)F)cc2)C(=O)N(C)CC(=O)N[C@@H](CCc2ccc(C(F)(F)F)c(OC)c2)C(=O)N2C[C@H](OCC)C[C@H]2C(=O)NC2(CC(C)(C)C2)C(=O)N(C)[C@@H](CC(C)(C)C)C(=O)N(C)[C@H](C(=O)N(C)C)CC(=O)N1C [PP2746]	9.55	A (a compound having 10 or more and less than 20 is denoted as A)	A (a compound having 10 or more and less than 20 is denoted as A)	7.99
CCO[C@@H]1C[C@H]2C(=O)NC3(CC(C)(C)C3)C(=O)N(C)[C@@H](CC(C)(C)C)C(=O)N(C)[C@H](C(=O)N(C)C)CC(=O)N(C)[C@@H](COC)C(=O)N[C@@H]([C@@H](C)CC)C(=O)N(C3CC3)CC(=O)N(C)[C@H]3C/C=C\CCN(C3=O)[C@@H](Cc3ccc(C(F)(F)F)cc3)C(=O)N(C)CC(=O)N[C@@H](CCc3ccc(C(F)(F)F)c(OC)c3)C(=O)N2C1 [PP2748]	9.70	A (a compound having 10 or more and less than 20 is denoted as A)	A (a compound having 10 or more and less than 20 is denoted as A)	8.15
CCC[C@H]1C(=O)N[C@@H]([C@@H](C)CC)C(=O)N(C2CC2)CC(=O)N(C)[C@H]2C/C=C\CCN(C2=O)[C@@H](Cc2ccc(C(F)(F)F)cc2)C(=O)N(C)CC(=O)N[C@@H](CCc2ccc(Cl)c(Cl)c2)C(=O)N2C[C@H](OCC)C[C@H]2C(=O)NC2(CC(C)(C)C2)C(=O)N(C)[C@@H](CC(C)(C)C)C(=O)N(C)[C@H](C(=O)N(C)C)CC(=O)N1C [PP2749]	9.06	AA (a compound having 20 or more is denoted as AA)	A (a compound having 10 or more and less than 20 is denoted as A)	7.66
CCC[C@H]1C(=O)N[C@@H]([C@@H](C)CC)C(=O)N(C)CC(=O)N(C)[C@H]2C/C=C\CCN(C2=O)[C@@H](Cc2ccc(C)cc2)C(=O)N(C)CC(=O)N[C@@H](CCc2cc(F)c(C(F)(F)F)c(F)c2)C(=O)N2C[C@H](OCC)C[C@H]2C(=O)NC2(CC(C)(C)C2)C(=O)N(C)[C@@H](CC2CCC2)C(=O)N(C)[C@H](C(=O)N(C)C)CC(=O)N1C [PP2751]	9.07	A (a compound having 10 or more and less than 20 is denoted as A)	A (a compound having 10 or more and less than 20 is denoted as A)	7.41
CCCOC[C@H]1C(=O)N[C@@H]([C@@H](C)CC)C(=O)N(C)CC(=O)N(C)[C@H]2C/C=C\CCN(C2=O)[C@@H](Cc2ccc(C)cc2)C(=O)N(C)CC(=O)N[C@@H](CCc2cc(F)c(C(F)(F)F)c(F)c2)C(=O)N2C[C@H](OCC)C[C@H]2C(=O)NC2(CC(C)(C)C2)C(=O)N(C)[C@@H](CC2CCC2)C(=O)N(C)[C@H](C(=O)N(C)C)CC(=O)N1C [PP2752]	8.92	A (a compound having 10 or more and less than 20 is denoted as A)	A (a compound having 10 or more and less than 20 is denoted as A)	7.15
CCC[C@H]1C(=O)N[C@@H]([C@@H](C)CC)C(=O)N(C)CC(=O)N(C)[C@H]2C/C=C\CCN(C2=O)[C@@H](Cc2ccc(C)cc2)C(=O)N(C)CC(=O)N[C@@H](CCc2ccc(C(F)(F)F)c(OC)c2)C(=O)N2C[C@H](OCC)C[C@H]2C(=O)NC2(CC(C)(C)C2)C(=O)N(C)[C@@H](CC2CCC2)C(=O)N(C)[C@H](C(=O)N(C)C)CC(=O)N1C [PP2753]	9.01	A (a compound having 10 or more and less than 20 is denoted as A)	B (a compound having 3 or more and less than 10 is denoted as B)	7.28
CCC[C@H]1C(=O)N[C@@H]([C@@H](C)CC)C(=O)N(C)CC(=O)N(C)[C@H]2C/C=C\CCN(C2=O)[C@@H](Cc2ccc(C)cc2)C(=O)N(C)CC(=O)N[C@@H](CCc2ccc(Cl)c(Cl)c2)C(=O)N2C[C@H](OCC)C[C@H]2C(=O)NC2(CC(C)(C)C2)C(=O)N(C)[C@@H](CC2CCC2)C(=O)N(C)[C@H](C(=O)N(C)C)CC(=O)N1C [PP2755]	9.25	A (a compound having 10 or more and less than 20 is denoted as A)	A (a compound having 10 or more and less than 20 is denoted as A)	7.45
CCC[C@H]1C(=O)N[C@@H]([C@@H](C)CC)C(=O)N(C2CC2)CC(=O)N(C)[C@H]2C/C=C\CCN(C2=O)[C@@H](Cc2ccc(C)cc2)C(=O)N(C)CC(=O)N[C@@H](CCc2ccc(Cl)c(Cl)c2)C(=O)N2C[C@H](OCC)C[C@H]2C(=O)NC2(CC(C)(C)C2)C(=O)N(C)[C@@H](CC2CCC2)C(=O)N(C)[C@H](C(=O)N(C)C)CC(=O)N1C [PP2761]	8.55	A (a compound having 10 or more and less than 20 is denoted as A)	A (a compound having 10 or more and less than 20 is denoted as A)	7.16
CCOC[C@H]1C(=O)N[C@@H]([C@@H](C)CC)C(=O)N(C2CC2)CC(=O)N(C)[C@H]2C/C=C\CCN(C2=O)[C@@H](Cc2ccc(C)cc2)C(=O)N(C)CC(=O)N[C@@H](CCc2ccc(Cl)c(Cl)c2)C(=O)N2C[C@H](OCC)C[C@H]2C(=O)NC2(CC(C)(C)C2)C(=O)N(C)[C@@H](CC2CCC2)C(=O)N(C)[C@H](C(=O)N(C)C)CC(=O)N1C [PP2762]	8.54	A (a compound having 10 or more and less than 20 is denoted as A)	A (a compound having 10 or more and less than 20 is denoted as A)	6.91
CCOC[C@H]1C(=O)N[C@@H]([C@@H](C)CC)C(=O)N(C)CC(=O)N(C)[C@H]2C/C=C\CCN(C2=O)[C@@H](Cc2ccc(C(F)(F)F)cc2)C(=O)N(C)CC(=O)N[C@@H](CCc2cc(F)c(C(F)(F)F)c(F)c2)C(=O)N2C[C@H](OCC)C[C@H]2C(=O)NC2(CC(C)(C)C2)C(=O)N(C)[C@@H](CC2CCC2)C(=O)N(C)[C@H](C(=O)N(C)C)CC(=O)N1C [PP2763]	9.07	A (a compound having 10 or more and less than 20 is denoted as A)	A (a compound having 10 or more and less than 20 is denoted as A)	7.14
CCC[C@H]1C(=O)N[C@@H]([C@@H](C)CC)C(=O)N(C)CC(=O)N(C)[C@H]2C/C=C\CCN(C2=O)[C@@H](Cc2ccc(C(F)(F)F)cc2)C(=O)N(C)CC(=O)N[C@@H](CCc2ccc(C(F)(F)F)c(OC)c2)C(=O)N2C[C@H](OCC)C[C@H]2C(=O)NC2(CC(C)(C)C2)C(=O)N(C)[C@@H](CC2CCC2)C(=O)N(C)[C@H](C(=O)N(C)C)CC(=O)N1C [PP2764]	9.07	A (a compound having 10 or more and less than 20 is denoted as A)	A (a compound having 10 or more and less than 20 is denoted as A)	7.25
CCOC[C@H]1C(=O)N[C@@H]([C@@H](C)CC)C(=O)N(C)CC(=O)N(C)[C@H]2C/C=C\CCN(C2=O)[C@@H](Cc2ccc(C(F)(F)F)cc2)C(=O)N(C)CC(=O)N[C@@H](CCc2ccc(C(F)(F)F)c(OC)c2)C(=O)N2C[C@H](OCC)C[C@H]2C(=O)NC2(CC(C)(C)C2)C(=O)N(C)[C@@H](CC2CCC2)C(=O)N(C)[C@H](C(=O)N(C)C)CC(=O)N1C [PP2765]	9.15	A (a compound having 10 or more and less than 20 is denoted as A)	A (a compound having 10 or more and less than 20 is denoted as A)	6.74
CCC[C@H]1C(=O)N[C@@H]([C@@H](C)CC)C(=O)N(C)CC(=O)N(C)[C@H]2C/C=C\CCN(C2=O)[C@@H](Cc2ccc(C(F)(F)F)cc2)C(=O)N(C)CC(=O)N[C@@H](CCc2ccc(Cl)c(Cl)c2)C(=O)N2C[C@H](OCC)C[C@H]2C(=O)NC2(CC(C)(C)C2)C(=O)N(C)[C@@H](CC2CCC2)C(=O)N(C)[C@H](C(=O)N(C)C)CC(=O)N1C [PP2766]	9.28	A (a compound having 10 or more and less than 20 is denoted as A)	A (a compound having 10 or more and less than 20 is denoted as A)	7.59
CCOC[C@H]1C(=O)N[C@@H]([C@@H](C)CC)C(=O)N(C)CC(=O)N(C)[C@H]2C/C=C\CCN(C2=O)[C@@H](Cc2ccc(C(F)(F)F)cc2)C(=O)N(C)CC(=O)N[C@@H](CCc2ccc(Cl)c(Cl)c2)C(=O)N2C[C@H](OCC)C[C@H]2C(=O)NC2(CC(C)(C)C2)C(=O)N(C)[C@@H](CC2CCC2)C(=O)N(C)[C@H](C(=O)N(C)C)CC(=O)N1C [PP2767]	9.31	A (a compound having 10 or more and less than 20 is denoted as A)	A (a compound having 10 or more and less than 20 is denoted as A)	7.20
